Where a name gives a salt, the structure may show the parent alone.
Tests used:
Type in all cases: physicochemical
[1] = Stability of AN-197 under acidic conditions (citric acid solution); settings: in ethyl acetate, stirred in citric acid solution overnight
Experimental: To evaluate the stability of AN-197 under acidic conditions, a sample of AN-197, prepared according to the procedure described in Example 4 (Route B) above, was dissolved in ethyl acetate and stirred in a citric acid solution overnight.

[2] = Stability of AN-197 in dichloromethane, acetonitrile or ethyl acetate heated to 40° C. overnight; settings: dissolved in dichloromethane
Experimental: To evaluate the stability of AN-197 under conditions of a large scale production, characterized by longer procedure times, samples of AN-197, prepared according to the procedure described in Example 4 above (Route B) above, dissolved in dichloromethane, acetonitrile or ethyl acetate were heated to 40° C. overnight. […] It was therefore concluded that AN-197 is stable under such conditions.

[3] = Stability of AN-197 by daily HPLC over 24 days, mobile phase solution vs neat oil; settings: 20° C.
Experimental: (§1) HPLC analyses were performed on a Water 2695 Separations Module, using a Luna C18 (2) 50 mm×4.6 mm×3 um column, a 5 μl injection volume and a 2487 dual wavelength detector under the following instrumental conditions: Mobile phase A: 0.1% formic acid; Mobile phase B: acetonitrile; Flow rate: 0.5 ml per minute; Mobile phase gradient: 0.0 minutes 90% A, 10% B, 14.0 minutes 20% A, 80% B, 15.0 minutes 90% A, 10% B and 20.0 minutes 90% A, 10% B; Run time: 20 minutes; Detection: UV at 254 nm; Column temperature: 40° C.
The stability of AN-197 was determined by performing an HPLC analysis daily during a period of 24 days and determining the appearance of perphenazine and GABA, the degradation products of AN-197. A sample of AN-197, prepared according to the procedure described above in Example 4 (Route B), was dissolved in the mobile phase solution used in the HPLC analysis (2:1 acetonitrile:water, pH=8) and was kept at 20° C. For comparison, a sample of neat AN-197 was kept under the same conditions and was similarly analyzed.

[4] = Chemical stability of mesylate and maleate salts by HPLC under various storage conditions; settings: room temperature, open to the atmosphere; listed as mesylate salt
[5] = as above
Experimental: The chemical stability of the conjugates was determined by HPLC analyses and was measured by the relative peak areas of the substance and of at least one of its degradation products. Thus, as is further exemplified in the Examples section that follows, the chemical stability of the exemplary conjugates described above was measured during time periods that typically ranged from 1 day to 24 days, whereby the conjugates were kept in sealed or open containers, with or without nitrogen atmosphere, and at a temperature range of from −20° C. to 40° C.
as §1
(§2) Stability and hygroscopicity studies of the mesylate and maleate salts of the conjugate were carried out under various conditions. The hygroscopicity of the salts was determined by following the water content of the salt using the Karl Fischer (KF) titration analysis method. The chemical stability of the salts was determined by following the appearance of the degradation product perphenazine using HPLC analyses. The samples were kept at −20° C. under nitrogen, at room temperature in an open container, at room temperature in a sealed container and at 40° C. in a sealed container. The samples were tested at the end of the preparation procedure (t=0), 72 hours after the preparation time (t=72), 1 week after the preparation time (t=168) and two weeks after the preparation time (t=336).

[6] = Hygroscopicity of mesylate and maleate salts by Karl Fischer titration
Experimental: Water absorption and content measurements were carried out using a Karl Fischer (KF) titrator. Karl Fischer titration is a classic method in analytical chemistry that uses calometric titration to determine the moisture content of a sample, which is specific to water. The titration reaction taking place in the presence of a base and 50:50 methanol:dichloromethane as a titration solvent.
The accurately weighted samples (near 100 mg) of the tested compound were placed in the titrator to determine the amount of sample required for measuring 10-250 μg of water, and the water content was calculated accordingly.
as §2

[7] = Solubility in 1% weight/volume lactic acid solution; settings: agitated 1 hour at room temperature, listed as mesylate salt
Experimental: 1.0 gram of each of the mesylate and maleate addition salts prepared as described herein was agitated in 10 ml of 1% weight/volume lactic acid solution for 1 hour at room temperature. Any solids remaining thereafter were filtered off and the filtrate was dried under vacuum until no further change in weight was detected. […] The calculated solubility obtained for the mesylate salt was more than 100 mg/ml.

[8] = Open container kept at room temperature, t = 0 hours
[9] = Open container kept at room temperature, t = 72 hours
[10] = Open container kept at room temperature, t = 168 hours
[11] = Open container kept at room temperature, t = 336 hours
[12] = Sealed container kept at 40° C., t = 0 hours
[13] = Sealed container kept at 40° C., t = 72 hours
[14] = Sealed container kept at 40° C., t = 168 hours
[15] = Sealed container kept at 40° C., t = 336 hours
[16] = Sealed container kept at room temperature, t = 0 hours
[17] = Sealed container kept at room temperature, t = 72 hours
[18] = Sealed container kept at room temperature, t = 168 hours
[19] = Sealed container kept at room temperature, t = 336 hours
[20] = Sealed container kept at −20° C. under N2, t = 0 hours
[21] = Sealed container kept at −20° C. under N2, t = 72 hours
[22] = Sealed container kept at −20° C. under N2, t = 168 hours
[23] = Sealed container kept at −20° C. under N2, t = 336 hours

For `CC(C)(C)OC(=O)NCCCC(=O)OCCN1CCN(CCCN2c3ccccc3Sc3ccc(Cl)cc32)CC1` [AN-197, Perphenazine N-Boc-4-aminobutyrate], which “hydrolysis of the product” value [1] is on record?
Its value is “no hydrolysis”.

What about the degradation [2] of the same compound?
The degradation was “no degradation had occurred”.

And the “perphenazine content (HPLC)” value ([3]; AN-197 solution in HPLC mobile phase (2:1 acetonitrile:water, pH=8), after 24 days)?
The value was 7.98%.

And the “perphenazine content (HPLC)” value ([3]; AN-197 solution in HPLC mobile phase (2:1 acetonitrile:water, pH=8), initial)?
Its value is 0.42%.

And the “perphenazine content (HPLC)” value ([3]; neat oil, after 24 days)?
Its value is 0.79%.

What about the “perphenazine content (HPLC)” value ([3]; neat oil, initial) of the same compound?
The value was 0.42%.

Which “texture and color after storage” value [4] does the source give for `NCCCC(=O)OCCN1CCN(CCCN2c3ccccc3Sc3ccc(Cl)cc32)CC1` [mesylate addition salt] here?
The value was “become sticky in texture and changed color from pink to black”.

And the Salt peak area [5, 8]?
The Salt peak area was 97.91%.

And the perphenazine peak area [5, 8]?
Its perphenazine peak area is 1.39%.

What about the Salt peak area [5, 9] of the same compound?
Its Salt peak area is 90.30%.

And the perphenazine peak area [5, 9]?
Its perphenazine peak area is 8.53%.

And the Salt peak area [5, 10]?
Its Salt peak area is 81.40%.

And the perphenazine peak area [5, 10]?
The perphenazine peak area was 17.68%.

What about the Salt peak area [5, 11] of the same compound?
Its Salt peak area is 61.97%.

And the “Unidentified impurity peak area” value [5, 11]?
Its value is 0.05%.

What about the perphenazine peak area [5, 11] of the same compound?
The perphenazine peak area was 35.74%.

And the Salt peak area [5, 12]?
Its Salt peak area is 97.91%.

And the perphenazine peak area [5, 12]?
The perphenazine peak area was 1.39%.

And the Salt peak area [5, 13]?
Its Salt peak area is 91.83%.

What about the perphenazine peak area [5, 13] of the same compound?
The perphenazine peak area was 7.33%.

And the Salt peak area [5, 14]?
Its Salt peak area is 91.91%.

And the perphenazine peak area [5, 14]?
Its perphenazine peak area is 7.56%.

And the Salt peak area [5, 15]?
Its Salt peak area is 87.17%.

And the perphenazine peak area [5, 15]?
The perphenazine peak area was 11.63%.

And the Salt peak area [5, 16]?
The Salt peak area was 97.91%.

What about the perphenazine peak area [5, 16] of the same compound?
Its perphenazine peak area is 1.39%.

What about the Salt peak area [5, 17] of the same compound?
The Salt peak area was 95.84%.

And the perphenazine peak area [5, 17]?
The perphenazine peak area was 3.17%.

And the Salt peak area [5, 18]?
The Salt peak area was 94.98%.

And the perphenazine peak area [5, 18]?
The perphenazine peak area was 4.52%.

And the Salt peak area [5, 19]?
The Salt peak area was 91.67%.

What about the perphenazine peak area [5, 19] of the same compound?
The perphenazine peak area was 6.88%.

What about the Salt peak area [5, 20] of the same compound?
Its Salt peak area is 97.91%.

What about the perphenazine peak area [5, 20] of the same compound?
Its perphenazine peak area is 1.39%.

And the Salt peak area [5, 21]?
The Salt peak area was 98.08%.

And the perphenazine peak area [5, 21]?
Its perphenazine peak area is 1.34%.

What about the Salt peak area [5, 22] of the same compound?
The Salt peak area was 98.22%.

What about the perphenazine peak area [5, 22] of the same compound?
The perphenazine peak area was 1.26%.

And the Salt peak area [5, 23]?
Its Salt peak area is 98.24%.

What about the perphenazine peak area [5, 23] of the same compound?
The perphenazine peak area was 1.21%.

What about the stability in words ([5]; sealed container at −20° C. under nitrogen atmosphere) of the same compound?
The stability in words was “mostly stable”.

What about the Water content % [6, 8] of the same compound?
The Water content % was 0.6%.

And the Water content % [6, 9]?
Its Water content % is 1.2%.

What about the Water content % [6, 10] of the same compound?
Its Water content % is 4.0%.

And the Water content % [6, 11]?
The Water content % was 4.8%.

What about the Water content % [6, 12] of the same compound?
The Water content % was 0.6%.

What about the Water content % [6, 13] of the same compound?
Its Water content % is 0.8%.

What about the Water content % [6, 14] of the same compound?
The Water content % was 1.2%.

What about the Water content % [6, 15] of the same compound?
The Water content % was 0.9%.

What about the Water content % [6, 16] of the same compound?
The Water content % was 0.6%.

And the Water content % [6, 17]?
Its Water content % is 0.8%.

And the Water content % [6, 18]?
Its Water content % is 1.3%.

And the Water content % [6, 19]?
The Water content % was 1.5%.

What about the Water content % [6, 20] of the same compound?
Its Water content % is 0.6%.

And the Water content % [6, 21]?
The Water content % was 0.6%.

And the Water content % [6, 22]?
The Water content % was 0.7%.

What about the Water content % [6, 23] of the same compound?
Its Water content % is 0.6%.

And the calculated solubility [7]?
The calculated solubility was “more than 100 mg/ml”.

Reference: patent US20090298814A1, “Novel salts of conjugated psychotropic drugs and processes of preparing same” (RAMOT AT TEL AVIV UNIVERISTY LTD, priority 2005, published 2009)
